What was measured:
[1] = target: T1, RAMP2-CLR (AM1 receptor) (Homo sapiens, UniProt O60895+Q16602); assay: cAMP accumulation, HEK-293 cells, RAMP2 + CLR; assay type: cell-based; conditions: mean ± S.E.
T1 construct: FLAG; expressed in transfected cells; host or cells: HEK-293 or HEK-293S cells, transient transfection, 1:1 RAMP:CLR
Method: HEK-293 cells were transfected with FuGENE 6 (Roche Applied Science) in accordance with the manufacturer's instructions using a 1:3 (w:v) DNA:FuGENE ratio and a 1:1 ratio of RAMP to CLR. […] The transfected cell lines were grown for 24–48 h prior to assaying.
The transfected HEK-293 cells were washed in PBS, resuspended in stimulation buffer (PBS containing 0.1% BSA and 0.5 mM IBMX), and seeded at 2000 cells/well in 384-well white Optiplates. Ligands were added in the range of 1 pM to 1 mM, and cAMP accumulation was measured after 30 min of stimulation using a LANCE® cAMP detection kit (PerkinElmer Life Sciences). […] Plates were read using a Mithras LB 940 multimode microplate reader (Berthold Technologies). […] Values were converted to concentration using a cAMP standard curve performed in parallel.
Data analysis for cAMP assays was performed in GraphPad Prism 6.0f (San Diego, CA). Data were fitted to obtain concentration-response curves using either the three-parameter logistic equation (for pEC50 values) or the operational model for partial agonism ([34]) to obtain values of efficacy (log τ) and the equilibrium dissociation constant (log Ka). These values were then used to quantify signaling bias as change in log (τ/Ka) relative to the natural cognate ligand for the respective receptor ([41]). […] Statistical differences were analyzed using one-way ANOVA or Student's t test as appropriate with post hoc Bonferroni's or Dunnett's multiple comparisons, and p < 0.05 was considered significant. […] For RT-PCR, normalization to the internal standard GAPDH was performed to reduce variance and enable a comparison between different cell lines. To quantitate the ligand-dependent response in the yeast system, a strain lacking GPA1 (MMY11), grown in rich medium, was used as a standard ([72]). As GPA1 is not present in this strain, the Gβγ subunits are unregulated and free to signal, allowing us to determine the maximal response of our system. […] For the mammalian cell-based assays, data analysis was carried out as for the yeast curves. […]

[2] = target: T2, RAMP3-CLR (AM2 receptor) (Homo sapiens, UniProt O60896+Q16602); assay: cAMP accumulation, HEK-293S cells, RAMP3 + CLR; assay type: cell-based; design: dose or concentration left out as unconfirmed; conditions: HEK293S, mean ± S.E., n = 5
T2 construct: FLAG; expressed in transfected cells; host or cells: HEK-293 or HEK-293S cells, transient transfection, 1:1 RAMP:CLR
T2 sequence (Q16602 23-461): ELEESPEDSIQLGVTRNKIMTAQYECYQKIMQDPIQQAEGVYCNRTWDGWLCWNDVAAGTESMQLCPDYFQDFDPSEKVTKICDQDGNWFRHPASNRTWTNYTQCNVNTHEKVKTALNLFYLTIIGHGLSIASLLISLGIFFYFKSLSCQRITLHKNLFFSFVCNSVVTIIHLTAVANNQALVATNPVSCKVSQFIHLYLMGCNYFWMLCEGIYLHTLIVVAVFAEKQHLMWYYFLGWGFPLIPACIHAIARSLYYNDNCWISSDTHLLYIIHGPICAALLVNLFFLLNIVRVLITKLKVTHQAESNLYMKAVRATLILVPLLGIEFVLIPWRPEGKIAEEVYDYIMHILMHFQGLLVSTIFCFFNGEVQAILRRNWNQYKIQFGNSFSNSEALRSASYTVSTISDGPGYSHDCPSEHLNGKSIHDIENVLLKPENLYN
T2 sequence (O60896 24-148): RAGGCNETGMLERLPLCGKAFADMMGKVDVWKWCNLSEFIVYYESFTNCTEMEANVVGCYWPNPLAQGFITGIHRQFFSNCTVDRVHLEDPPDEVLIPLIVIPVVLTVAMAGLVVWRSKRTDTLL
Method: HEK-293 cells, provided by Dr. Jügen Müller (University of Aston), were cultured in DMEM supplemented with 10% heat-inactivated FBS and kept at 37 °C in a humidified 95% air, 5% CO2 incubator. HEK-293S cells (a gift from AstraZeneca) were cultured in DMEM supplemented with 8% heat-inactivated FBS and kept at 37 °C in a humidified 95% air, 5% CO2 incubator. HEK-293 cells were transfected with FuGENE 6 (Roche Applied Science) in accordance with the manufacturer's instructions using a 1:3 (w:v) DNA:FuGENE ratio and a 1:1 ratio of RAMP to CLR. HEK-293S cells were seeded into 96-well poly-D-lysine-coated plates at a density of 15,000 cells/well (determined using a Countess^TM cell counter, Invitrogen) 1 day prior to transfection. HEK-293S cells were transiently transfected as described previously ([38]) using a 1:1 ratio of RAMP to CLR. The transfected cell lines were grown for 24–48 h prior to assaying.
The transfected HEK-293 cells were washed in PBS, resuspended in stimulation buffer (PBS containing 0.1% BSA and 0.5 mM IBMX), and seeded at 2000 cells/well in 384-well white Optiplates. Ligands were added in the range of 1 pM to 1 mM, and cAMP accumulation was measured after 30 min of stimulation using a LANCE® cAMP detection kit (PerkinElmer Life Sciences). […] Plates were read using a Mithras LB 940 multimode microplate reader (Berthold Technologies). […]

T1 sequence (Q16602 23-461): as the sequence (Q16602 23-461) above
T1 sequence (O60895 43-175): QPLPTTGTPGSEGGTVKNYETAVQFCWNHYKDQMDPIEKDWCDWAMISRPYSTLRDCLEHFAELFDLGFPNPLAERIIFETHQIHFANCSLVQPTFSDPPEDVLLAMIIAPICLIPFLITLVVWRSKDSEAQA

| Emax ([1]; HEK293, PTX treated (200 ng/ml, 16 h), percentage of maximal cAMP with 100 μM forskolin in presence of PTX, n = 6 (Table 3)) [%] | Emax ([1]; HEK293, percentage of maximal cAMP with 100 μM forskolin, HEK-293, 30 min, n = 8 (Table 2)) [%] | Emax ([1]; HEK293, untreated, percentage of maximal cAMP with 100 μM forskolin in presence of PTX, n = 9 (Table 3)) [%] | Emax [2] [%] | SMILES |
| --- | --- | --- | --- | --- |
| 56 ± 2.2 | 34.1 ± 4 | 36.6 ± 3.5 |  | CSCC[C@H](NC(=O)[C@H](CC(C)C)NC(=O)[C@H](CCC(N)=O)NC(=O)[C@H](Cc1c[nH]c2ccccc12)NC(=O)[C@H](CC(C)C)NC(=O)[C@H](CCCNC(=N)N)NC(=O)[C@H](Cc1c[nH]cn1)NC(=O)[C@H](CO)NC(=O)[C@H](CC(C)C)NC(=O)[C@H](CC(N)=O)NC(=O)[C@H](CCC(N)=O)NC(=O)[C@@H](NC(=O)[C@H](CCC(N)=O)NC(=O)[C@@H]1CSSC[C@H](NC(=O)CNC(=O)[C@@H](NC(=O)[C@H](CCCNC(=N)N)NC(=O)[C@H](CC(C)C)NC(=O)[C@H](CC(C)C)NC(=O)[C@H](CCC(N)=O)NC(=O)[C@H](C)NC(=O)[C@H](CCC(N)=O)NC(=O)[C@@H](N)[C@@H](C)O)C(C)C)C(=O)N[C@@H](C(C)C)C(=O)N[C@@H](CC(C)C)C(=O)NCC(=O)N[C@@H]([C@@H](C)O)C(=O)N1)C(C)C)C(=O)NCC(=O)N1CCC[C@H]1C(=O)N[C@@H](C)C(=O)NCC(=O)N[C@@H](CCCNC(=N)N)C(=O)N[C@@H](CCC(N)=O)C(=O)N[C@@H](CC(=O)O)C(=O)N[C@@H](CO)C(=O)N[C@@H](C)C(=O)N1CCC[C@H]1C(=O)N[C@H](C(=O)N[C@@H](CC(=O)O)C(=O)N1CCC[C@H]1C(=O)N[C@@H](CO)C(=O)N[C@@H](CO)C(=O)N1CCC[C@H]1C(=O)N[C@@H](Cc1c[nH]cn1)C(=O)N[C@@H](CO)C(=O)N[C@@H](Cc1ccc(O)cc1)C(N)=O)C(C)C [AM2, adrenomedullin 2] |
|  |  |  | 39.1 ± 1.2 | CC[C@H](C)[C@H](NC(=O)[C@H](CCC(N)=O)NC(=O)[C@H](Cc1c[nH]cn1)NC(=O)[C@H](C)NC(=O)[C@H](CC(C)C)NC(=O)[C@H](CCCCN)NC(=O)[C@H](CCC(N)=O)NC(=O)[C@@H](NC(=O)[C@@H](NC(=O)[C@@H]1CSSC[C@H](NC(=O)CNC(=O)[C@H](Cc2ccccc2)NC(=O)[C@H](CO)NC(=O)[C@H](CCCNC(=N)N)NC(=O)[C@H](CC(C)C)NC(=O)CNC(=O)[C@H](CCC(N)=O)NC(=O)[C@H](Cc2ccccc2)NC(=O)[C@H](CC(N)=O)NC(=O)[C@H](CC(N)=O)NC(=O)[C@H](CCSC)NC(=O)[C@H](CO)NC(=O)[C@H](CCC(N)=O)NC(=O)[C@H](CCCNC(=N)N)NC(=O)[C@@H](N)Cc2ccc(O)cc2)C(=O)N[C@@H](CCCNC(=N)N)C(=O)N[C@@H](Cc2ccccc2)C(=O)NCC(=O)N[C@@H]([C@@H](C)O)C(=O)N1)[C@@H](C)O)C(C)C)C(=O)N[C@@H](Cc1ccc(O)cc1)C(=O)N[C@@H](CCC(N)=O)C(=O)N[C@@H](Cc1ccccc1)C(=O)N[C@H](C(=O)N[C@@H](CC(=O)O)C(=O)N[C@@H](CCCCN)C(=O)N[C@@H](CC(=O)O)C(=O)N[C@@H](CCCCN)C(=O)N[C@@H](CC(=O)O)C(=O)N[C@@H](CC(N)=O)C(=O)N[C@H](C(=O)N[C@@H](C)C(=O)N1CCC[C@H]1C(=O)N[C@@H](CCCNC(=N)N)C(=O)N[C@@H](CO)C(=O)N[C@@H](CCCCN)C(=O)N[C@H](C(=O)N[C@@H](CO)C(=O)N1CCC[C@H]1C(=O)N[C@@H](CCC(N)=O)C(=O)NCC(=O)N[C@@H](Cc1ccc(O)cc1)C(N)=O)[C@@H](C)CC)C(C)C)[C@@H](C)O [AM, adrenomedullin] |

Source: article PMC5063977 (The Journal of Biological Chemistry, 2016)
